Values after ≈ are worked out from the molar mass of the structure shown.
Columns and labels:
S. epidermidis HC3-CA-1 [1] = assay: MIC in isolation, microbroth dilution; format: cell-based
Protocol: (§1) Microbroth dilution in 96-well microtiter plates was performed on the E. coli and S. epidermidis strains. […] Each test was performed in duplicate. The MIC was determined as the lowest concentration where no growth was observed, but the adjacent wells had growth as determined by optical density.

S. epidermidis HC3-CA-1 [2] = assay: MBC in combination, checkerboard titration and subculture; conditions: in combination with tetracycline
Protocol: (§3) Microtiter plates were incubated at 37° C. for 24 h and the results were analyzed. Each test included a growth control without addition of any antimicrobials, as well as an uninoculated control column to ensure there was no contamination in the plate. The combination MIC was taken as the concentration where no growth was observed by optical density but the wells immediately adjacent had growth. To determine the MBC, 5 μL aliquots were removed from each well in the 96-well MIC plates above and used to inoculate a new microtiter plate that was filled with Mueller-Hinton media. This new microtiter plate was incubated at 37° C. for 24 h and growth was quantified by measuring the optical density in the wells.
(§4) The potential interaction of the two antimicrobials was determined by the FICI (fractional inhibitory concentration index) and FBCI (fractional bactericidal concentration index).

E. Coli HC1-R2A-1 [3] = assay: as above; conditions: in combination with tetracycline
Protocol: as §3, §4

S. epidermidis HC3-CA-1 [4] = assay: MIC in combination, checkerboard titration; conditions: in combination with tetracycline
Protocol: as §3, §4

E. Coli HC1-R2A-1 [5] = assay: MIC in combination, checkerboard titration; conditions: in combination with tetracycline
Protocol: as §3, §4

S. epidermidis HC3-CA-1 [6] = assay: MBC in isolation, subculture from MIC plates; format: cell-based
Protocol: (§2) This new microtiter plate was incubated at 37° C. and growth was quantified after 24 h by measuring the optical density in the wells.

E. Coli HC1-R2A-1 [7] = assay: MBC in isolation, subculture from MIC plates; format: cell-based
Protocol: as §2

E. Coli HC1-R2A-1 [8] = conditions: alone, 37° C., 24 h
Protocol: as §1

Structure (SMILES)	MIC in Isolation, T-EDTA (S. epidermidis HC3-CA-1 [1]; alone, 37° C., 24 h) [wt %]	MBC in Combination, T-EDTA (S. epidermidis HC3-CA-1 [2]) [wt %]	MBC in Combination, T-EDTA (E. Coli HC1-R2A-1 [3]) [wt %]	MIC in Combination, T-EDTA (S. epidermidis HC3-CA-1 [4]) [wt %]	MIC in Combination, T-EDTA (E. Coli HC1-R2A-1 [5]) [wt %]	MBC in Isolation, T-EDTA (S. epidermidis HC3-CA-1 [6]; alone) [wt %]	MBC in Isolation, T-EDTA (E. Coli HC1-R2A-1 [7]; alone) [wt %]	MIC in Isolation, T-EDTA (E. Coli HC1-R2A-1 [8]) [wt %]	MIC (S. epidermidis HC3-CA-1 [1]; Staphylococcus epidermidis, HC3CA1, read-out: MIC in Isolation, Tetracycline, alone, 37° C., 24 h) [µg/mL]	MBC (S. epidermidis HC3-CA-1 [6]; Staphylococcus epidermidis, HC3CA1, read-out: MBC in Isolation, Tetracycline, alone) [µg/mL]	MBC (E. Coli HC1-R2A-1 [7]; Escherichia coli, read-out: MBC in Isolation, Tetracycline, alone) [µg/mL]
O=C([O-])CN(CCN(CC(=O)[O-])CC(=O)[O-])CC(=O)[O-].[Na+].[Na+].[Na+].[Na+] [T-EDTA, tetrasodium EDTA]	0.0625	0.25	0.25	0.015	0.25	4	1	1	–	–	–
CN(C)[C@@H]1C(O)=C(C(N)=O)C(=O)[C@@]2(O)C(O)=C3C(=O)c4c(O)cccc4[C@@](C)(O)[C@H]3C[C@@H]12 [Tetracycline, tetracycline, reference compound]	–	–	–	–	–	–	–	–	8 (≈ 18 µM)	8 (≈ 18 µM)	512 (≈ 1150 µM)

Reference: US20250108027A1, “TOPICAL DELIVERY OF EDTA COMPOSITIONS” (priority 2023, published 2025)
